# Experimental data taken from PMC12647645, “Structural interactions of BWC0977 with Klebsiella pneumoniae topoisomerase IV and biochemical basis of its broad-spectrum activity” (Communications Biology, 2025).
# Where “and” joins values, the source holds several entries; their conditions need not be identical. Identical values can stand only once.
# Key:
# E. coli wild-type strain = assay: MIC, wild-type strain; format: cell-based; conditions: Escherichia coli
# E. coli BAA 2469 = assay: microbe, parasite or virus in culture; format: cell-based; conditions: Escherichia coli, BAA2469
# E. faecium = tested on: E. faecium; parameters: method as in ref 6 (Hameed P et al., 2024); conditions: ref 6 (Hameed P et al., 2024); cited from earlier work
# P. aeruginosa = tested on: P. aeruginosa; parameters: method as in ref 6 (Hameed P et al., 2024); conditions: ref 6 (Hameed P et al., 2024); cited from earlier work
# [1] = target: E. coli GyrA D82N mutant gyrase (Escherichia coli, UniProt P0AES4+P0AES6, D82N); assay: biochemical; format: biochemical; conditions: for Gyrase supercoiling inhibition response: GyrA D82N gyrase
# K. pneumoniae BAA 2784 = assay: microbe, parasite or virus in culture; format: cell-based; conditions: Klebsiella pneumoniae, BAA2784
# K. pneumoniae BAA 2782 = assay: microbe, parasite or virus in culture; format: cell-based; conditions: Klebsiella pneumoniae, BAA2782
# E. coli = conditions: ref 6 (Hameed P et al., 2024); cited from earlier work
# [2] = tested on: E. coli MG1655 GyrA D82N, ParC WT; assay: microbe, parasite or virus in culture; format: cell-based; conditions: Escherichia coli
# E. coli gyrase = target: T1, E. coli gyrase (Escherichia coli, UniProt P0AES4+P0AES6); assay: biochemical; format: biochemical; conditions: for Gyrase supercoiling inhibition response: E. coli WT gyrase
# T1 construct: purchased Inspiralis
# [3] = tested on: E. coli MG1655 GyrA WT, ParC R119K; assay: microbe, parasite or virus in culture; format: cell-based; conditions: Escherichia coli
# K. pneumoniae ATCC 13883 = assay: MIC broth microdilution; format: cell-based; conditions: Klebsiella pneumoniae, ATCC13883
# [4] = target: E. coli GyrA M120K mutant gyrase (Escherichia coli, UniProt P0AES4+P0AES6, M120K); assay: biochemical; format: biochemical; conditions: for Gyrase supercoiling inhibition response: GyrA M120K gyrase
# [5] = tested on: E. coli MG1655 GyrA WT, ParC D79N; assay: microbe, parasite or virus in culture; format: cell-based; conditions: Escherichia coli
# E. cloacae = conditions: ref 6 (Hameed P et al., 2024); cited from earlier work
# [6] = compound 4.444 µM, source data Fig 6A/6B, 4.444 µM
# [7] = compound 13.333 µM, source data Fig 6A/6B, 13.333 µM
# [8] = compound 40 µM, source data Fig 6A/6B, 40 µM
# [9] = compound 120 µM, source data Fig 6A/6B, 120 µM
compound,measurement,setting,value
Cn1c(=O)ccc2ccc(F)c(CCNC[C@H]3CN(c4cnc5c(n4)NC(=O)CO5)C(=O)O3)c21 [BWC0977],MIC,E. coli wild-type strain,0.01 mg/L
same,MIC,E. coli BAA 2469,0.01 mg/L
same,MIC90 against diverse global isolates,E. faecium,0.12 mg/L
same,MIC90 against diverse global isolates,P. aeruginosa,1 mg/L
same,IC50,"[1]; Fig. 6, read-out: IC50 D82N gyrase supercoiling",8.07 µM
same,Gyrase supercoiling inhibition response,[1]; [6],46.06 and 47.14
same,Gyrase supercoiling inhibition response,[1]; [7],41.37 and 59.15 and 62.03
same,Gyrase supercoiling inhibition response,[1]; [8],73.59 and 74.94
same,Gyrase supercoiling inhibition response,[1]; [9],87.19 and 87.16
same,reduction in inhibition potency compared to wildtype gyrase,[1]; GyrA D82N vs WT,> 500 fold
same,inhibition at 4.444 µM,"[1]; read-out: Gyrase supercoiling inhibition response, GyrA D82N gyrase, compound 4.444 µM, source data Fig 6A/6B",30.7%
same,inhibition at 40 µM,"[1]; read-out: Gyrase supercoiling inhibition response, GyrA D82N gyrase, compound 40 µM, source data Fig 6A/6B",55.7%
same,inhibition at 120 µM,"[1]; read-out: Gyrase supercoiling inhibition response, GyrA D82N gyrase, compound 120 µM, source data Fig 6A/6B",78.8%
same,MIC,K. pneumoniae BAA 2784,0.125 mg/L
same,MIC,K. pneumoniae BAA 2782,0.125 mg/L
same,MIC90 against diverse global isolates,E. coli,0.5 mg/L
same,MIC,[2],0.08 mg/L
same,IC50,E. coli gyrase,0.004 ± 0.001 µM
same,Gyrase supercoiling inhibition response,"E. coli gyrase; compound 0.0003 μM, source data Fig 2A/6A, 0.0003 µM",7.2 and 10.3 and 5.8
same,Gyrase supercoiling inhibition response,"E. coli gyrase; compound 0.0003 μM, source data Fig 2A/6A, listed as 977, 0.0003 µM",10.30 and 5.78
same,Gyrase supercoiling inhibition response,"E. coli gyrase; compound 0.008 μM, source data Fig 2A/6A, 0.008 µM",69.7 and 73.4
same,Gyrase supercoiling inhibition response,"E. coli gyrase; compound 0.008 μM, source data Fig 2A/6A, listed as 977, 0.008 µM",73.65 and 69.70 and 73.41
same,Gyrase supercoiling inhibition response,"E. coli gyrase; compound 0.074 μM, source data Fig 2A/6A, 0.074 µM",93.3 and 92.7
same,Gyrase supercoiling inhibition response,"E. coli gyrase; compound 0.074 μM, source data Fig 2A/6A, listed as 977, 0.074 µM",89.29 and 93.34 and 92.67
same,Gyrase supercoiling inhibition response,"E. coli gyrase; compound 0.222 μM, source data Fig 2A/6A, 0.222 µM",96.5 and 97.7 and 91.5
same,Gyrase supercoiling inhibition response,"E. coli gyrase; compound 0.222 μM, source data Fig 2A/6A, listed as 977, 0.222 µM",97.67 and 91.52
same,Gyrase supercoiling inhibition response,"E. coli gyrase; compound 2 μM, source data Fig 2A/6A, 2 µM",100.2 and 100.3 and 98.6
same,Gyrase supercoiling inhibition response,"E. coli gyrase; compound 2 μM, source data Fig 2A/6A, listed as 977, 2 µM",100.30 and 98.60
same,higher inhibition potency compared to compound 17a,E. coli gyrase; E. coli gyrase,~ 20 fold
same,inhibition at 0.0003 µM,"E. coli gyrase; read-out: Gyrase supercoiling inhibition response, E. coli WT gyrase, compound 0.0003 μM, source data Fig 2A/6A",7.23%
same,inhibition at 0.008 µM,"E. coli gyrase; read-out: Gyrase supercoiling inhibition response, E. coli WT gyrase, compound 0.008 μM, source data Fig 2A/6A",73.7%
same,inhibition at 0.074 µM,"E. coli gyrase; read-out: Gyrase supercoiling inhibition response, E. coli WT gyrase, compound 0.074 μM, source data Fig 2A/6A",89.3%
same,inhibition at 0.222 µM,"E. coli gyrase; read-out: Gyrase supercoiling inhibition response, E. coli WT gyrase, compound 0.222 μM, source data Fig 2A/6A",96.5%
same,inhibition at 2 µM,"E. coli gyrase; read-out: Gyrase supercoiling inhibition response, E. coli WT gyrase, compound 2 μM, source data Fig 2A/6A",100%
same,MIC,[3],0.026 mg/L
same,MIC,K. pneumoniae ATCC 13883,0.06 mg/L
same,IC50,"[4]; Fig. 6, read-out: IC50 M120K gyrase supercoiling",116 µM
same,Gyrase supercoiling inhibition response,[4]; [6],22.36 and 14.93
same,Gyrase supercoiling inhibition response,[4]; [7],30.98 and 24.28
same,Gyrase supercoiling inhibition response,[4]; [8],42.55 and 34.32
same,Gyrase supercoiling inhibition response,[4]; [9],58.34 and 49.21
same,reduction in inhibition potency compared to wildtype gyrase,[4]; GyrA M120K vs WT,> 500 fold
same,inhibition at 4.444 µM,"[4]; read-out: Gyrase supercoiling inhibition response, GyrA M120K gyrase, compound 4.444 µM, source data Fig 6A/6B",20.2%
same,inhibition at 13.333 µM,"[4]; read-out: Gyrase supercoiling inhibition response, GyrA M120K gyrase, compound 13.333 µM, source data Fig 6A/6B",27.2%
same,inhibition at 40 µM,"[4]; read-out: Gyrase supercoiling inhibition response, GyrA M120K gyrase, compound 40 µM, source data Fig 6A/6B",34.7%
same,inhibition at 120 µM,"[4]; read-out: Gyrase supercoiling inhibition response, GyrA M120K gyrase, compound 120 µM, source data Fig 6A/6B",56.3%
same,MIC,[5],0.03 mg/L
same,MIC90 against diverse global isolates,E. cloacae,2 mg/L
